Data taken from DBAASP.
In brackets after ≈: the same amount, converted by molar mass.

What was measured:
Assay in all cases: ≥ marks a high value that may be exact or a test limit, other limits are often not marked, values filed in µg/mL are converted to µM
[1] = test system: Pseudomonas aeruginosa Q14-0890
[2] = test system: Staphylococcus aureus RN4220
[3] = test system: Acinetobacter baumannii Q12-0809
[4] = test system: Staphylococcus aureus MRSA-15
Campylobacter jejuni = test system: Campylobacter jejuni
[5] = test system: Staphylococcus aureus Q14-0320
[6] = test system: Enterococcus faecalis JH-2-2
[7] = test system: Pseudomonas aeruginosa Q12-0581
[8] = test system: Acinetobacter baumannii Q13-0717
[9] = test system: Salmonella typhimurium SL1344
[10] = test system: Campylobacter jejuni NCTC 11351
[11] = test system: Pseudomonas aeruginosa Q14-0208
[12] = test system: Klebsiella pneumoniae Q14-0095
[13] = test system: Klebsiella pneumoniae ATCC 700603
[14] = test system: Staphylococcus aureus ATCC 29213
Escherichia coli K-12 = test system: Escherichia coli K-12
[15] = test system: Pseudomonas aeruginosa PAO1
Escherichia coli = test system: Escherichia coli
[16] = test system: Acinetobacter baumannii Q12-0867
[17] = test system: Listeria monocytogenes NCTC 11994
[18] = test system: Klebsiella pneumoniae NCTC 13442
[19] = test system: Staphylococcus aureus NCTC 12493
[20] = test system: Pseudomonas aeruginosa ATCC 27853
[21] = test system: Escherichia coli ATCC 25922(GenR)
[22] = test system: Candida albicans NCPF 1467
[23] = test system: Escherichia coli NCTC 10418
[24] = test system: Staphylococcus aureus NCTC 10788
[25] = test system: Bacillus subtilis ATCC 23857
[26] = test system: Staphylococcus aureus ATCC 25923(RifR)
[27] = test system: Staphylococcus aureus ATCC 25923(GenR)
[28] = test system: Enterococcus faecalis NCTC 12697
[29] = test system: Escherichia coli ATCC 25922(RifR)
[30] = test system: Staphylococcus aureus ATCC 33591
[31] = test system: Staphylococcus aureus USA 300
[32] = test system: Campylobacter jejuni ATCC 33292
[33] = test system: Klebsiella pneumoniae Q14-0285
Acinetobacter baumannii = test system: Acinetobacter baumannii
Pseudomonas aeruginosa = test system: Pseudomonas aeruginosa
[34] = test system: Campylobacter jejuni NCTC 11161
[35] = test system: Escherichia coli CGMCC 1.8732
[36] = test system: Staphylococcus aureus CGMCC 1.8721
[37] = test system: Klebsiella pneumoniae CGMCC 1.1736
[38] = test system: Pseudomonas aeruginosa CGMCC 1.2421
[39] = test system: Staphylococcus epidermidis CGMCC 1.4260
[40] = test system: Bacillus subtilis CGMCC 1.3376

MIC [1]	MIC [2]	MIC [4]	MIC (Campylobacter jejuni)	MIC [5]	MIC [6]	MIC [8]	MIC [9]	MIC [10]	MIC [11]	MIC [13]	MIC [14]	MIC (Escherichia coli K-12)	MIC [15]	MIC (Escherichia coli)	MIC [17]	MIC [18]	MIC [19]	MIC [20]	further results	SMILES
13.4 µM (≈ 32 µg/mL)	≥ 107 µM	≥ 104 µM	≥ 53.4 µM	26.7 µM (≈ 64 µg/mL)	≥ 107 µM	26.7 µM (≈ 64 µg/mL)	≥ 107 µM	≥ 53.4 µM	26.7 µM (≈ 64 µg/mL)	26.7 µM (≈ 64 µg/mL)	26.7 µM (≈ 64 µg/mL)	≥ 107 µM	214 µM (≈ 512 µg/mL)	> 53.4 µM	≥ 53.4 µM	≥ 53.4 µM	6.68 µM (≈ 16 µg/mL)	53.4 µM (≈ 128 µg/mL)	MIC [3]: 13.4 µM (≈ 32 µg/mL); MIC [7]: ≥ 53.4 µM; MIC [12]: ≥ 53.4 µM; MIC [16]: 6.68 µM (≈ 16 µg/mL)	CC(C)[C@H](NC(=O)[C@@H](N)CCC(N)=O)C(=O)N[C@@H](CCCN=C(N)N)C(=O)N[C@@H](Cc1c[nH]c2ccccc12)C(=O)N[C@@H](Cc1c[nH]c2ccccc12)C(=O)NCC(=O)N[C@@H](CCCN=C(N)N)C(=O)N[C@@H](Cc1ccc(O)cc1)C(=O)N[C@@H](Cc1c[nH]c2ccccc12)C(=O)N[C@@H](CCCN=C(N)N)C(=O)N[C@@H](CCCN=C(N)N)C(=O)N[C@@H](CCCCN)C(=O)N[C@@H](Cc1c[nH]c2ccccc12)C(=O)N[C@@H](C)C(=O)N[C@H](C(=O)N[C@@H](CS)C(=O)N[C@@H](CCCN=C(N)N)C(=O)O)[C@@H](C)O [QVRWWGRYWRRKWATCR]
										> 128 µM							4 µM (≈ 5.53 µg/mL)	128 µM (≈ 177 µg/mL)	MIC [21]: ≥ 32 µM; MIC [22]: 4 µM (≈ 5.53 µg/mL); MIC [23]: 16 µM (≈ 22.1 µg/mL); MIC [24]: 2 µM (≈ 2.77 µg/mL); MIC [25]: 4 µM (≈ 5.53 µg/mL); MIC [26]: 16 µM (≈ 22.1 µg/mL); MIC [27]: 8 µM (≈ 11.1 µg/mL); MIC [28]: 8 µM (≈ 11.1 µg/mL); MIC [29]: ≥ 32 µM	CC[C@H](C)[C@H](NC(=O)[C@@H]1CCCN1C(=O)[C@H](CC(C)C)NC(=O)[C@@H](N)Cc1ccccc1)C(=O)N[C@H](C(=O)N[C@@H](C)C(=O)N[C@@H](CCCCN)C(=O)N[C@@H](CC(C)C)C(=O)N[C@@H](CC(C)C)C(=O)N[C@@H](CO)C(=O)NCC(=O)N[C@@H](CC(C)C)C(=O)N[C@@H](CC(C)C)C(N)=O)C(C)C [FLPIVAKLLSGLL]
26.3 µM (≈ 64 µg/mL)	13.1 µM (≈ 32 µg/mL)	13.1 µM (≈ 32 µg/mL)	≥ 52.6 µM	≥ 52.6 µM	13.1 µM (≈ 32 µg/mL)	3.29 µM (≈ 8 µg/mL)	13.1 µM (≈ 32 µg/mL)	≥ 52.6 µM	13.1 µM (≈ 32 µg/mL)	26.3 µM (≈ 64 µg/mL)	> 52.6 µM	26.3 µM (≈ 64 µg/mL)	52.6 µM (≈ 128 µg/mL)	> 52.6 µM	13.1 µM (≈ 32 µg/mL)	≥ 52.6 µM	26.3 µM (≈ 64 µg/mL)	> 52.6 µM	MIC [30]: ≥ 52.6 µM; MIC [31]: ≥ 105 µM; MIC [32]: 13.1 µM (≈ 32 µg/mL); MIC [33]: 26.3 µM (≈ 64 µg/mL); MIC (Acinetobacter baumannii): 6.57 µM (≈ 16 µg/mL); MIC (Pseudomonas aeruginosa): 105 µM (≈ 256 µg/mL); MIC [34]: 13.1 µM (≈ 32 µg/mL)	CC[C@H](C)[C@H](NC(=O)[C@H](CCCN=C(N)N)NC(=O)[C@@H](NC(=O)[C@H](CC(C)C)NC(=O)[C@H](CC(C)C)NC(=O)[C@H](CCCCN)NC(=O)[C@H](CC(N)=O)NC(=O)[C@@H](NC(=O)[C@H](CCCN=C(N)N)NC(=O)[C@H](CCCN=C(N)N)NC(=O)[C@H](CC(C)C)NC(=O)[C@@H](N)Cc1cnc[nH]1)[C@@H](C)CC)[C@@H](C)O)C(=O)NCC(=O)N[C@@H](CC(C)C)C(=O)N[C@@H](Cc1ccc(O)cc1)C(=O)N[C@@H](CCCN=C(N)N)C(=O)N[C@@H](Cc1cnc[nH]1)C(=O)N[C@@H](C)C(=O)N[C@@H](Cc1ccccc1)C(=O)NCC(=O)O [HLRRINKLLTRIGLYRHAFG]
																			MIC [35]: 12.5 µM (≈ 30.4 µg/mL); MIC [36]: 25 µM (≈ 60.9 µg/mL); MIC [37]: 25 µM (≈ 60.9 µg/mL); MIC [38]: 12.5 µM (≈ 30.4 µg/mL); MIC [39]: 6.25 µM (≈ 15.2 µg/mL); MIC [40]: 3.13 µM (≈ 7.62 µg/mL)	CC[C@H](C)[C@H](NC(=O)[C@H](C)N)C(=O)NCC(=O)N[C@@H](CO)C(=O)N[C@H](C(=O)N[C@@H](CC(C)C)C(=O)NCC(=O)N[C@@H](C)C(=O)N[C@@H](CC(C)C)C(=O)N[C@@H](C)C(=O)N[C@@H](CCCCN)C(=O)NCC(=O)N[C@@H](CC(C)C)C(=O)N1CCC[C@H]1C(=O)N[C@H](C(=O)N[C@@H](CC(C)C)C(=O)N[C@@H](CCCN=C(N)N)C(=O)N[C@@H](CO)C(=O)N[C@@H](Cc1c[nH]c2ccccc12)C(=O)N[C@H](C(=O)N[C@@H](CCCCN)C(=O)N[C@@H](CC(N)=O)C(=O)N[C@@H](CCCN=C(N)N)C(N)=O)[C@@H](C)CC)[C@@H](C)O)[C@@H](C)CC [AIGSILGALAKGLPTLRSWIKNR]
